In ChEMBL document CHEMBL5226288, “A perspective on medicinal chemistry approaches towards adenomatous polyposis coli and Wnt signal based colorectal cancer inhibitors” (Eur J Med Chem, 2021):
≈ marks a conversion by molar mass, not a printed value. Each block holds one compound with its values, some of them ahead of it.

Legend:
DLD-1 [1] = experiment: Anticancer activity against human DLD1 cells expressing APC mutant assessed as reduction in cell viability by dual-glo luciferase assay; format: functional, cell-based
HCT-116 [2] = experiment: Anticancer activity against human HCT-116 cells assessed as reduction in cell viability incubated for 24 hrs by Cell Titer-Glo assay; format: functional, cell-based; conditions: HCT-116, 24 h
DLD-1 [3] = experiment: Anticancer activity against human DLD-1 cells assessed as reduction in cell viability incubated for 24 hrs by Cell Titer-Glo assay; format: functional, cell-based; conditions: DLD-1, 24 h
[4] = target: T1, Poly [ADP-ribose] polymerase tankyrase-2 (Homo sapiens, UniProt Q9H2K2); experiment: Inhibition of TNKS2 (unknown origin)
T1 sequence (Q9H2K2 whole entry): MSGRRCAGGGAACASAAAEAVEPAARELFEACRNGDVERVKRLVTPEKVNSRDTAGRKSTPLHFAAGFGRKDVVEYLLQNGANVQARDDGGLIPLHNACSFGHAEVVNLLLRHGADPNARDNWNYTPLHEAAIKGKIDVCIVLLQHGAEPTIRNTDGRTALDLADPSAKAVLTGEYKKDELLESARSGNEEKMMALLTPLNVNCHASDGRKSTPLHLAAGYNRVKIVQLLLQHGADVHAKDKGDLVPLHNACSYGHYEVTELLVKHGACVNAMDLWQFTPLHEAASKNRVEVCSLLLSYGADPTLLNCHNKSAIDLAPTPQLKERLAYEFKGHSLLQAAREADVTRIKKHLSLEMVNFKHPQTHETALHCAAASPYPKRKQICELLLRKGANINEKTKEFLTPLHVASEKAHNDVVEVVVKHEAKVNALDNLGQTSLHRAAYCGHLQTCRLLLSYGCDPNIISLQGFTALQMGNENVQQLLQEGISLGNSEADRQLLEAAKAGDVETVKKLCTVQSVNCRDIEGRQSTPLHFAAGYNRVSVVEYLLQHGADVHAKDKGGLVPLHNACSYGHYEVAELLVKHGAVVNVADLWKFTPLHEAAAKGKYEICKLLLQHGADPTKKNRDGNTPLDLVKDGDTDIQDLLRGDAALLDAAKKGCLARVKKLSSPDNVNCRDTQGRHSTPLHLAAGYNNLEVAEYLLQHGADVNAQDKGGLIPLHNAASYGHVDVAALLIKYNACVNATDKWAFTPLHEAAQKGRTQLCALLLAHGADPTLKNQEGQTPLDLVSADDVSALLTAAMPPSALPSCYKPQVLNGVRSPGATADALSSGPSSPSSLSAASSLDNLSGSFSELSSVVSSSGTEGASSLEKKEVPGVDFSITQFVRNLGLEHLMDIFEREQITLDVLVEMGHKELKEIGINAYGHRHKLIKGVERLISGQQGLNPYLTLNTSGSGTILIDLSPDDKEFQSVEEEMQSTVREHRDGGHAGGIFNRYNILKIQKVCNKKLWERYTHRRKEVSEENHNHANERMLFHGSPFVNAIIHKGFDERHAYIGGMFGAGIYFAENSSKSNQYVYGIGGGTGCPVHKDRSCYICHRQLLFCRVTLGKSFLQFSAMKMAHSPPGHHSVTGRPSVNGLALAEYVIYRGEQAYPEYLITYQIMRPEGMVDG

[5] = target: T2, Poly [ADP-ribose] polymerase tankyrase-1 (Homo sapiens, UniProt O95271); experiment: Inhibition of TNKS1 (unknown origin)
T2 sequence (O95271 whole entry): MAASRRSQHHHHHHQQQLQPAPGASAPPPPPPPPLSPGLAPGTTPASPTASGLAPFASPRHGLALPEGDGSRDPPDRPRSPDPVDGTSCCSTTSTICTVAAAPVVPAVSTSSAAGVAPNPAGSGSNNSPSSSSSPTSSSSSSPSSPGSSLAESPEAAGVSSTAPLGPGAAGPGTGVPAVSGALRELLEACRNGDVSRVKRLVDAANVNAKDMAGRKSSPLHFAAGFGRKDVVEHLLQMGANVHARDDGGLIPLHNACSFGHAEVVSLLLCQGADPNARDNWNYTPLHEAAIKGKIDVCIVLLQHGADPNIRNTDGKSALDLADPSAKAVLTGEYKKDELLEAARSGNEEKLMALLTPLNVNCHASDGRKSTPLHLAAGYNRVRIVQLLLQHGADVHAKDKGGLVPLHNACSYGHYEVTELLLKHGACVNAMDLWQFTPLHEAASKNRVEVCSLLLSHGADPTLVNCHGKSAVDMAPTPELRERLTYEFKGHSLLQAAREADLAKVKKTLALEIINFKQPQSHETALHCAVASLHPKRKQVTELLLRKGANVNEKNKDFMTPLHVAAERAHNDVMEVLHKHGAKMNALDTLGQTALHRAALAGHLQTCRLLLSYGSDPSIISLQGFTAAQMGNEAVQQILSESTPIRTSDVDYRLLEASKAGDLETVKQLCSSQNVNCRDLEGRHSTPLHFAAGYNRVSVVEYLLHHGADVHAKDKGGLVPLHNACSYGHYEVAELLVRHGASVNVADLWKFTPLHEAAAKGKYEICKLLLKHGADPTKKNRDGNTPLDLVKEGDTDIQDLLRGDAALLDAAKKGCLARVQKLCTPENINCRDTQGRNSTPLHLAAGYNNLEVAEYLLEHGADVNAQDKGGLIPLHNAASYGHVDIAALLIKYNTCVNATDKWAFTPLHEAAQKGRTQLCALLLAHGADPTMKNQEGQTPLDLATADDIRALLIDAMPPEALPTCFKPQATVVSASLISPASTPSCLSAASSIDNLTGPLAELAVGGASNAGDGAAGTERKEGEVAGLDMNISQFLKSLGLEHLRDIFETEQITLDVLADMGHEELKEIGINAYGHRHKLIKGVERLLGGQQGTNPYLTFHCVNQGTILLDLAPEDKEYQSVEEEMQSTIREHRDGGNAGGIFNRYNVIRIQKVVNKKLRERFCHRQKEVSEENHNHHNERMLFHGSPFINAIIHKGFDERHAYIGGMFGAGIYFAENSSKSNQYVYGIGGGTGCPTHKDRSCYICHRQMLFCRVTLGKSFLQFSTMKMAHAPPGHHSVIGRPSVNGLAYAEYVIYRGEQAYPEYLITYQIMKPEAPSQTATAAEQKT

DLD-1 [6] = experiment: Anticancer activity against human DLD-1 cells assessed as reduction in cell viability; format: functional, cell-based
DLD-1 [7] = experiment: Anticancer activity against human DLD-1 cells assessed as cell growth inhibition by SRB assay; format: functional, cell-based
SW480 [8] = experiment: Anticancer activity against human SW480 cells assessed as cell growth inhibition by SRB assay; format: functional, cell-based
HCT-116 [9] = experiment: Anticancer activity against human HCT-116 cells assessed as decrease in cell growth incubated for 72 hrs by tryphan blue staining based cell counter analysis; format: functional; conditions: HCT-116, 72 h
SW480 [10] = experiment: Anticancer activity against human SW480 cells assessed as reduction in cell proliferation incubated for 72 hrs by; format: functional, cell-based
SW480 [11] = experiment: Antiproliferative activity against human SW480 cells assessed as reduction in cell viability incubated for 48 hrs by MTT assay; format: functional, cell-based; conditions: SW480, 48 h
HCT-116 [12] = experiment: Antiproliferative activity against human HCT-116 cells assessed as reduction in cell viability incubated for 48 hrs by MTT assay; format: functional, cell-based
[13] = Inhibition of APC/ASEF (unknown origin) protein protein interaction incubated for 2 hrs by fluorescence polarization analysis; design: species or system Homo sapiens
HCT-116 [14] = experiment: Anticancer activity against human HCT-116 cells assessed as reduction in cell viability incubated for 24 hrs by MTT assay; format: functional, cell-based; conditions: HCT-116, 24 h
SW480 [15] = experiment: Anticancer activity against human SW480 cells assessed as reduction in cell viability incubated for 24 hrs by MTT assay; format: functional, cell-based; conditions: SW480, 24 h
Mus musculus = species: Mus musculus; experiment: Anticancer activity against C57BL/6J mouse small intestine organoid assessed as decrease in cell growth and measured after 4 days by qPCR analysis; format: functional; conditions: 96 h

IC50 [4]: 850 nM
IC50 [5]: 1900 nM
SMILES: COc1ccc(C2(CNC(=O)c3ccc(NC(=O)c4ccco4)cc3)CCOCC2)cc1

IC50 (DLD-1 [7]): 1000 nM
IC50 (SW480 [8]): 600 nM
SMILES: Cc1cc(C(=O)N/N=C\c2ccccc2O)c2cc(Br)ccc2n1

IC50 [4]: 25 nM
IC50 [5]: 46 nM
SMILES: Cc1ccccc1-n1c(/C=C/c2nnc(-c3ccc(C#N)cc3)o2)nnc1-c1ccc(S(C)(=O)=O)cn1

IC50 [13]: 1020 nM
IC50 (HCT-116 [12]; time 48 hrs): 1.37 µM
SMILES: COc1cccc(C2=NN(c3ccc(C(=O)Nc4cc(C(F)(F)F)cc(C(F)(F)F)c4)cc3)C(c3ccc4c(ccn4C)c3)C2)c1 (stereo not drawn)

Further lines, the compound ahead of its results:

SMILES: CCN(C(=O)C1CCN(S(=O)(=O)c2cc(Br)cc3c2N(C(C)=O)CC3)CC1)c1cccc(C)c1
IC50 (DLD-1 [1]): 900 nM

SMILES: N#CC(=C(/N)Sc1ccccc1N)/C(C#N)=C(\N)Sc1ccccc1N
IC50 (HCT-116 [2]): 940 nM
IC50 (DLD-1 [3]): 1140 nM

SMILES: NS(=O)(=O)c1ccc(NC(=S)N2CCN(C/C=C/c3ccccc3)CC2)cc1
IC50 (DLD-1 [6]): 18 nM

SMILES: C=C1C(=O)[C@]23C[C@H]1CCC2[C@@]1(C)C([C@@H](O)[C@@H]3O)[C@](C)(C(=O)O)CC[C@@H]1O (stereo partly drawn)
IC50 (HCT-116 [9]): 4.07 µM

SMILES: CC(=O)O[C@@H]1C(=O)c2c(O)cc(O)cc2O[C@H]1c1ccccc1
IC50 (SW480 [10]): 45.6 µg/mL (≈ 145 µM)

SMILES: CC/C(=N/NC(=O)c1ccnc(NCCN2CCOCC2)c1)c1ccc(C)cc1O
IC50 (DLD-1 [7]): 500 nM
IC50 (SW480 [8]): 900 nM

SMILES: C=C1C(=O)[C@@]23[C@H](O)CC4C(C)(C)[C@@H](OC(C)=O)CC[C@@]4(C)[C@@H]2[C@@H]2O[C@@H]2[C@@H]1[C@H]3O (stereo partly drawn)
IC50 (SW480 [11]): 20 µM
IC50 (HCT-116 [12]; Homo sapiens, HCT-116, 48 h, read-out: IC50): 20 µM

SMILES: CC(C)(C)[Si](OC[C@@]1(C)C2CC[C@@]3(CO3)[C@@H](C/C=C3/C(=O)OC[C@H]3O)[C@]2(C)CC[C@H]1O)(c1ccccc1)c1ccccc1 (stereo partly drawn)
IC50 (HCT-116 [14]): 18.2 µM
IC50 (SW480 [15]): 16.1 µM

SMILES: CC/C(=N/NC(=O)c1ccccc1)c1cc(C)cc(C)c1O
IC50 (DLD-1 [7]): 900 nM
IC50 (SW480 [8]): 1700 nM

SMILES: CS(=O)(=O)c1ccccc1N1CCN(c2nc(O)c3c(n2)CCSC3)CC1
IC50 (Mus musculus): 110 nM
